Values quoted from earlier work in patent US10668050B2, “Compositions, methods and kits for treating diarrhea-predominant irritable bowel syndrome” (RedHill Biopharma Ltd., priority 2014, dated 2020).
Counter-ions that a name gives are not always drawn.

Tests used:
[1] = scale of Pliska et al., J. Chromatog. 216, 79, 1981

| solubility | hydropathy value (relative hydrophobic character) [1] | SMILES |
| --- | --- | --- |
| soluble in water and normal saline | – | Cc1nccn1CC1CCc2c(c3ccccc3n2C)C1=O (racemic) [Ondansetron HCl dihydrate, Ondansetron hydrochloride] |
| – | 0 | NCC(=O)O [glycine] |
| – | 1.83 | CC[C@H](C)[C@H](N)C(=O)O [iso-leucine] |
| – | −2.15 | N[C@@H](CC(=O)O)C(=O)O [aspartic acid] |
